In patent US8962681B2, “Use of aminoacetonitrile derivatives against endoparasites” (Zoetis LLC, priority 2011, dated 2015):
Read-outs that look alike come from different tables or passages of the source.

Legend:
[1] = tested on: L4 stage larvae of D. immitis; assay: L4 stage larvae motility/kill assay; assay type: cell-based, Dirofilaria immitis
[2] = tested on: Dirofilaria immitis microfilariae; assay: in vitro microwell motility assay against heartworm microfilariae; assay type: cell-based; conditions: microfilaria from canine blood, 384 well plate, 72 hours incubation at 37° C. and 5% CO2, LemnaTec Scanalyzer
[3] = screened at 10 μM in duplicate, 96-well plate, motility observed at 4, 24, 48 and 72 hours, endpoint defined as ED80 (80% of larvae killed)

Molecule	active against L4 D. immitis at 10 μM [1, 3]	ED50 (dose at which the overall microfilaria motility was reduced by 50% compared to that of an untreated control) [2] [µM]	further results
CC(C#N)(COc1ccc(C#N)cc1C(F)(F)F)NC(=O)c1ccc(S(F)(F)(F)(F)F)cc1 (stereo not drawn) [test compound 7, N-{1-cyano-2-[4-cyano-2-(trifluoromethyl)phenoxy]-1-methylethyl}-4-(pentafluorothio)benzamide]	active		
COc1ccccc1Oc1ccc(C#N)cc1OCC(C)(C#N)NC(=O)c1ccc(S(F)(F)(F)(F)F)cc1 (stereo not drawn) [test compound 69, N-{1-cyano-2-[5-cyano-2-(2-methoxyphenoxy)phenoxy]-1-methylethyl}-4-(pentafluorothio)benzamide]	active		
Cc1ccc(C#N)cc1OCC(C)(C#N)NC(=O)c1ccc(S(F)(F)(F)(F)F)cc1 (stereo not drawn) [test compound 43, N-[1-cyano-2-(5-cyano-2-methylphenoxy)-1-methylethyl]-4-(pentafluorothio)benzamide]	active	10	
CO/N=C1\C[C@]2(C[C@@H]3C[C@@H](C/C=C(\C)C[C@@H](C)/C=C/C=C4\CO[C@@H]5[C@H](O)C(C)=C[C@@H](C(=O)O3)[C@]45O)O2)O[C@H](/C(C)=C/C(C)C)[C@H]1C [moxidectin, reference compound]	active		
ivermectin [reference compound]			active against L4 D. immitis at 10 μM [1]: active
CO[C@H]1C[C@H](O[C@@H]2/C(C)=C/C[C@@H]3C[C@@H](C[C@]4(CC[C@H](C)[C@@H](C5CCCCC5)O4)O3)OC(=O)[C@@H]3C=C(C)/C(=N/O)[C@H]4OC/C(=C\C=C\[C@@H]2C)[C@]43O)O[C@@H](C)[C@@H]1O [Selamectin, reference compound]			active against L4 D. immitis at 10 μM [1]: active
CC(C#N)(COc1ccc(I)cc1)NC(=O)c1ccc(S(F)(F)(F)(F)F)cc1 (stereo not drawn) [test compound 13, N-[1-cyano-2-(4-iodophenoxy)-1-methylethyl]-4-(pentafluorothio)benzamide]	active		
CC(C#N)(COc1ccc(Cl)cc1Cl)NC(=O)c1ccc(S(F)(F)(F)(F)F)cc1 (stereo not drawn) [test compound 8, N-[1-cyano-2-(2,4-dichlorophenoxy)-1-methylethyl]-4-(pentafluorothio)benzamide]	active		
CC(C#N)(COc1ccc(Cl)cc1C#N)NC(=O)c1ccc(S(F)(F)(F)(F)F)cc1 (stereo not drawn) [test compound 11, N-[2-(4-chloro-2-cyanophenoxy)-1-cyano-1-methylethyl]-4-(pentafluorothio)-benzamide]	active		
milbemycin oxime [reference compound]	active		
COc1ccc(OCC(C)(C#N)NC(=O)c2ccc(S(F)(F)(F)(F)F)cc2)cc1C#N (stereo not drawn) [test compound 41, N-[1-cyano-2-(3-cyano-4-methoxyphenoxy)-1-methylethyl]-4-(pentafluorothio)-benzamide]		33	
CC(C#N)(COc1cc(Br)ccc1C#N)NC(=O)c1ccc(S(F)(F)(F)(F)F)cc1 (stereo not drawn) [test compound 36, N-[2-(5-bromo-2-cyanophenoxy)-1-cyano-1-methylethyl]-4-(pentafluorothio)-benzamide]		10	
COc1cc(O)ccc1Oc1ccc(C#N)cc1OCC(C)(C#N)NC(=O)c1ccc(S(F)(F)(F)(F)F)cc1 (stereo not drawn) [test compound 79, N-{1-cyano-2-[5-cyano-2-(4-hydroxy-2-methoxyphenoxy)phenoxy]-1-methylethyl}-4-(pentafluorothio)benzamide]		10	
CC(C#N)(COc1ccc(Cl)cc1)NC(=O)c1ccc(S(F)(F)(F)(F)F)cc1 (stereo not drawn) [test compound 10, N-[2-(4-chlorophenoxy)-1-cyano-1-methylethyl]-4-(pentafluorothio)benzamide]	active		
Cc1ccc(Oc2ccc(C#N)cc2OCC(C)(C#N)NC(=O)c2ccc(S(F)(F)(F)(F)F)cc2)c(C)c1 (stereo not drawn) [test compound 72, N-{1-cyano-2-[5-cyano-2-(2,4-dimethylphenoxy)phenoxy]-1-methylethyl}-4-(pentafluorothio)benzamide]		1	
CC(C#N)(Cc1ccc(C#N)cc1Cl)NC(=O)c1ccc(S(F)(F)(F)(F)F)cc1 (stereo not drawn) [test compound 90, N-[2-(2-chloro-4-cyanophenyl)-1-cyano-1-methylethyl]-4-(pentafluorothio)benzamide]		33	
CC(C#N)(COc1ccc(C#N)cc1OC(F)(F)F)NC(=O)c1ccc(S(F)(F)(F)(F)F)cc1 (stereo not drawn) [test compound 56, N-{1-cyano-2-[4-cyano-2-(trifluoromethoxy)phenoxy]-1-methylethyl}-4-(pentafluorothio)benzamide]		3.3	
CC(C#N)(COc1cc(C#N)cc(C(F)(F)F)c1)NC(=O)c1ccc(S(F)(F)(F)(F)F)cc1 (stereo not drawn) [test compound 5, N-{1-cyano-2-[3-cyano-5-(trifluoromethyl)phenoxy]-1-methylethyl}-4-(pentafluorothio)benzamide]		3.3	
COc1ccc(Oc2ccc(C#N)cc2OCC(C)(C#N)NC(=O)c2ccc(S(F)(F)(F)(F)F)cc2)c(Cl)c1 (stereo not drawn) [test compound 75, N-{2-[2-(2-chloro-4-methoxyphenoxy)-5-cyanophenoxy]-1-cyano-1-methylethyl}-4-(pentafluorothio)benzamide]		3.3	
CC(C#N)(COc1ccc(C#N)cc1Br)NC(=O)c1ccc(S(F)(F)(F)(F)F)cc1 (stereo not drawn) [test compound 29, N-[2-(2-bromo-4-cyanophenoxy)-1-cyano-1-methylethyl]-4-(pentafluorothio)-benzamide]	active		
CC(C#N)(COc1c(F)cc(C#N)cc1C(F)(F)F)NC(=O)c1ccc(S(F)(F)(F)(F)F)cc1 (stereo not drawn) [test compound 26, N-{1-cyano-2-[4-cyano-2-fluoro-6-(trifluoromethyl)phenoxy]-1-methylethyl}-4-(pentafluorothio)benzamide]		10	
COc1cc(F)c(Oc2ccc(C#N)cc2OCC(C)(C#N)NC(=O)c2ccc(S(F)(F)(F)(F)F)cc2)c(F)c1 (stereo not drawn) [test compound 77, N-{1-cyano-2-[5-cyano-2-(2,6-difluoro-4-methoxyphenoxy)phenoxy]-1-methylethyl}-4-(pentafluorothio)benzamide]		10	
CC(C#N)(COc1ccc(Br)cc1F)NC(=O)c1ccc(S(F)(F)(F)(F)F)cc1 (stereo not drawn) [test compound 32, N-[2-(4-bromo-2-fluorophenoxy)-1-cyano-1-methylethyl]-4-(pentafluorothio)-benzamide]		33	
